Read-outs that look alike come from different tables or passages of the source.
How the values were obtained:
HSV-1 strain F or KOS = test: Inhibition of herpes simplex virus (HSV-1) replication in cell culture (BHK-21 cells, glycoprotein C ELISA); assay type: cell-based
In short: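 Replication readout: ELISA for HSV-1 late glycoprotein C (mAb C11, peroxidase-OPD, 450 nm) on glutaraldehyde-fixed cells. Monolayers (~50,000 cells/well) were infected with strain F or KOS (MOI 0.05 PFU/cell), then incubated 24 h at 37° with compound in 2% FBS α-MEM. EC50 derived from % inhibition.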

HCMV (strain AD169) [1] = test: Inhibition of HCMV replication, ELISA assay (Hs-68 cells); assay type: cell-based, Human Cytomegalovirus (HCMV); conditions: read-out: ELISA CMV EC50
Protocol: (§1) C) Inhibition of Human Cytomegalovirus (HCMV) Replication
(§2) The effect of compounds on the replication of HCMV has been measured by using an ELISA-based assay (ELISA) and a plaque reduction assay (PRA).
Hs-68 cells (ATCC # CRL 1635) were seeded in 96 well microtiter plates at 10,000 cells/well in 100 μL of DMEM medium (Gibco Canada Inc.) supplemented with 10% fetal bovine serum (FBS, Gibco Canada Inc.). The plates were incubated for 3 days at 37° to allow the cells to reach 80-90% confluency prior to the assay.
The medium was removed from wells by aspiration. The cells then were infected at a multiplicity of infection (MOI) of 0.01 PFU/cell with 50 μL of HCMV (strain AD169, ATCC VR-538) in DMEM medium supplemented with 5% heat inactivated FBS (assay medium). The virus was allowed to adsorb to cells for 2 h at 37°. Following viral adsorption, the medium was removed from the wells by aspiration. The cells were washed twice with 200 μL of assay medium to remove unabsorbed virus. The cells were then incubated with or without 100 μL of appropriate concentrations of test reagent in assay medium. After 8 days of incubation at 37°, the extent of viral replication was determined by an ELISA assay which detects the late structural protein p28 of HCMV.
Eight days after infection, the medium was aspirated from the wells. Non-specific binding sites were blocked by adding 200 μL of phosphate buffered saline containing 1% (w/v) bovine serum albumin (blocking buffer) to each well and incubating the plates for 30 min at room temperature. After removal of the blocking buffer by aspiration, the cells were fixed with 100 μL of cold ethanol-acetone solution (95:5) per well. The plates were placed at -20° for 30 min. The plates were washed 4 times with phosphate buffered saline containing 0.05% (v/v) polyoxyethylene sorbitan monolaurate (Tween®). Thereafter, 100 μL of mAb UL99 (Advanced Biotechnologies Inc., #13-130-100) recognizing HCMV protein p28 was added to each wells and plates were incubated for 2 h at room temperature. The plates were washed four times with 200 μL of the above-noted phosphate buffered saline/Tween-20® solution. The cells were then incubated with 100 μL of sheep anti-mouse IgGγ horseradish peroxidase conjugated for 2 h at room temperature. The plates were then washed four times with 200 μL of above-noted phosphate buffered saline/Tween-20® solution. Thereafter, 100 μL of ortho phenylenediamine dihydrochloride (OPD, Gibco Canada Inc.) solution was added to each well and the plates were agitated on a microplate shaker for 30 min in the dark. Color development was monitored at 450 nm using a microplate spectrophotometer.
The SAS program was used to calculate the % inhibition of viral replication and to generate EC50 values.
The EC50 values obtained according to this assay method for certain thiazolylphenyl derivatives of this invention are listed in the following tables under the heading ELISA CMV.

HCMV (strain AD169) [2] = test: Inhibition of HCMV replication, plaque reduction assay (PRA, Hs-68 cells); assay type: cell-based, Human Cytomegalovirus (HCMV); conditions: read-out: PRA CMV EC50
Protocol: as §1, §2
(§3) Hs-68 cells (ATCC # CRL 1635) were seeded in 12-well plates at 83,000 cells/well in 1 mL of DMEM medium (Gibco Canada Inc.) supplemented with 10% fetal bovine serum (FBS, Gibco Canada Inc.). The plates were incubated for 3 days at 37° to allow the cells to reach 80-90% confluency prior to the assay.
(§4) The medium was removed from the cells by aspiration. The cells were then infected with approximately 50 PFU of HCMV (strain AD169, ATCC VR-538) in DMEM medium supplemented with 5% inactivated FBS (assay medium). The virus was allowed to adsorb to cells for 2 h at 37°. Following viral adsorption, the medium was removed from the wells by aspiration. The cells were then incubated with or without 1 mL of appropriate concentrations of test reagent in assay medium. After 4 days of incubation at 37°, the medium was exchanged with fresh medium containing test compound and 4 days later the cells were fixed with 1% aqueous formaldehyde and stained with a 2% crystal violet solution in 20% ethanol in water. Microscopic plaques were counted using a stereomicroscope. Drug effects were calculated as a percent reduction in the number of plaques in the presence of each drug concentration compared to the number observed in the absence of drug. Ganciclovir was used as a positive control in all experiments.
(§5) The EC50 values obtained according to this assay for certain thiazolyl derivatives of this invention are listed in the following tables under the heading PRA CMV.

HSV-1 helicase-primase = target: T1, HSV-1 helicase-primase (Human herpesvirus 1, UniProt P10189+P10236); test: HSV-1 DNA-dependent ATPase assay (inhibition of HSV-1 helicase-primase); assay type: biochemical
T1 construct: made in house; host or cells: Sf21 insect cells triply infected with recombinant baculoviruses (UL5, UL8, UL52)
T1 sequence (P10192 whole entry): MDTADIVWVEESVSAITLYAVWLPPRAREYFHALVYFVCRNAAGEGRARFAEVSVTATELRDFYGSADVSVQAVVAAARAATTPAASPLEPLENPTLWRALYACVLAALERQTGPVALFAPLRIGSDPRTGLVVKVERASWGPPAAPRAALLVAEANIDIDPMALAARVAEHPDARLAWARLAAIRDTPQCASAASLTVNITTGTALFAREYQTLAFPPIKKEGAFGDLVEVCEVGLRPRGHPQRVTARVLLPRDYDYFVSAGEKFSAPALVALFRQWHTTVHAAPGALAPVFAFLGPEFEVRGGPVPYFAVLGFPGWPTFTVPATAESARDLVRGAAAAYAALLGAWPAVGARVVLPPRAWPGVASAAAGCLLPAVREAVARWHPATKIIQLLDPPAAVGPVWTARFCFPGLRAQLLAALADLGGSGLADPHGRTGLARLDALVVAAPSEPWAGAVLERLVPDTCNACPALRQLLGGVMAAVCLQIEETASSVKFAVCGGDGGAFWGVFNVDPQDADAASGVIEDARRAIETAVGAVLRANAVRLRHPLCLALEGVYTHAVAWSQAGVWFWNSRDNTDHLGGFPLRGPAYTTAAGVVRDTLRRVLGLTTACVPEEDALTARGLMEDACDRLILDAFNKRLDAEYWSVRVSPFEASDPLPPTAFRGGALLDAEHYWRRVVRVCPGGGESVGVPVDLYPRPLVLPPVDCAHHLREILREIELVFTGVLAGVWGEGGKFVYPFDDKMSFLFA
T1 sequence (P10236 whole entry): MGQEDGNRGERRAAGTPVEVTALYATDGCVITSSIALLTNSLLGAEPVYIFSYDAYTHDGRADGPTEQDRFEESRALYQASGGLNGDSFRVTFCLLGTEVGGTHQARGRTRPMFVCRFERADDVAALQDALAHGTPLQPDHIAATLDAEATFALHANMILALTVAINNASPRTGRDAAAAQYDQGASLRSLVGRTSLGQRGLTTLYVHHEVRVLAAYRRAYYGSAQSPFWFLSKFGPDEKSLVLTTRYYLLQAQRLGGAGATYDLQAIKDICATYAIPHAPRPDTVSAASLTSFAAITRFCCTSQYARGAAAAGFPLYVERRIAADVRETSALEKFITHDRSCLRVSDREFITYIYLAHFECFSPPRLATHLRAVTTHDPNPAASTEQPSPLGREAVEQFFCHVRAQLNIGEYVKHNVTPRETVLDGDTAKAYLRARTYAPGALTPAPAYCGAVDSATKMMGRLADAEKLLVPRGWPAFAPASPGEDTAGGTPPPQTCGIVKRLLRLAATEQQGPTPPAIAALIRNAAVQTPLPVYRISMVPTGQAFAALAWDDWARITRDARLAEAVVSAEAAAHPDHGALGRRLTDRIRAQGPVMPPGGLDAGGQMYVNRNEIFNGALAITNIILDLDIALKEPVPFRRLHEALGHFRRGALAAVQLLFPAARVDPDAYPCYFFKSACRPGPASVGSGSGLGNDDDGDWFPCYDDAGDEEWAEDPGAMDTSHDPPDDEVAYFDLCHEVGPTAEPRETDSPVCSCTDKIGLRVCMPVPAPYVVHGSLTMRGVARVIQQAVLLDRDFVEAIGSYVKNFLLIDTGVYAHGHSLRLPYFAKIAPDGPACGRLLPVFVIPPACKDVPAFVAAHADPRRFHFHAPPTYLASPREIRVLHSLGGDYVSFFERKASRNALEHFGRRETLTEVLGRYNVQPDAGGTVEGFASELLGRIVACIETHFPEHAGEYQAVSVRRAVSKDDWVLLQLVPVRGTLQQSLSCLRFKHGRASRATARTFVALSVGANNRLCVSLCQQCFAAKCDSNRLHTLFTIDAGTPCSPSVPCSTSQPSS
T1 sequence (P10189 whole entry): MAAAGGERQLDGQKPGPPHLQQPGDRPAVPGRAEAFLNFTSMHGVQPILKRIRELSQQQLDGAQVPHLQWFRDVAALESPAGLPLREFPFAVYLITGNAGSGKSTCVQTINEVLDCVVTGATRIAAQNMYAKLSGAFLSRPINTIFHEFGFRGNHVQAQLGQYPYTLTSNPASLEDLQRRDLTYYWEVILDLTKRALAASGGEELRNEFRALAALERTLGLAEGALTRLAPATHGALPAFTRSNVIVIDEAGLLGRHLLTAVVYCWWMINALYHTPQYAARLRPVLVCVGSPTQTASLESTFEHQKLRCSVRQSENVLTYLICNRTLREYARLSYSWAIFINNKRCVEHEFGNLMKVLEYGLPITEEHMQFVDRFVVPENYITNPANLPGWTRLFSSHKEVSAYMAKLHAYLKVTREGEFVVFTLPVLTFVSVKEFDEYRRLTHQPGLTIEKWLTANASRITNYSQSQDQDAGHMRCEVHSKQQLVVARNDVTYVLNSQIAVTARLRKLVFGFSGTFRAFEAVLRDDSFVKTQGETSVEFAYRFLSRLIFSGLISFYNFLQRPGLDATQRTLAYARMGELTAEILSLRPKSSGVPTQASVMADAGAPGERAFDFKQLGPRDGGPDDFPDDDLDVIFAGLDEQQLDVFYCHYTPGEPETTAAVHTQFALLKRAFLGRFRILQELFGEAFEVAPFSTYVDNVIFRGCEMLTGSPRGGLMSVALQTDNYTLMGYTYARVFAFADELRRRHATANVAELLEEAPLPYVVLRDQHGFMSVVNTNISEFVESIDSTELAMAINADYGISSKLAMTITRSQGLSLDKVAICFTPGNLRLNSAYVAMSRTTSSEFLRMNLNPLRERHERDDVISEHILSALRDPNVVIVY
In short: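 ATP hydrolysis was measured as inorganic phosphate (malachite green/molybdate, 650 nm) after 20 min at 34°. Reaction: 3 μg/mL purified Sf21-expressed UL5/UL8/UL52 helicase-primase, 25 μM single-stranded M13 DNA hybridized to 68-mer, 4 mM ATP, pH 7.5 HEPES buffer, 3.3% DMSO. Net absorbance change with and without inhibitor gave DNA-dependent ATPase activity.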

[3] = Inhibition of HCMV replication, plaque reduction assay (PRA, Hs-68 cells); assay type: cell-based, Human Cytomegalovirus (HCMV); conditions: human, read-out: Cytotoxic at this concentration (footnote *, PRA CMV)
Protocol: as §1, §2, §3, §4, §5

[4] = Human betaherpesvirus 5, AD169, Hs68, Group 1 Table 6 entries
[5] = Human alphaherpesvirus 1, BHK-21, Group 2 Table 1 entries
[6] = Human betaherpesvirus 5, AD169, Hs68, Group 2 Table 1 entries
[7] = Human alphaherpesvirus 1, BHK-21, Group 1 Table 2 entries
[8] = Human betaherpesvirus 5, AD169, Hs68, Group 1 Table 2 entries
[9] = Human alphaherpesvirus 1, BHK-21, Group 1 Table 1 entries
[10] = Human betaherpesvirus 5, AD169, Hs68, Group 1 Table 1 entries

SMILES	EC50 (HCMV (strain AD169) [2]; [6])	IC50 (HSV-1 helicase-primase; Group 2 Table 1 entries)	MCC at 192 h ([3]; Group 2 Table 1 entries)	IC50 (HSV-1 helicase-primase; Group 1 Table 1 entries)	EC50 (HSV-1 strain F or KOS; [9])	EC50 (HCMV (strain AD169) [1]; [10])	other results
Nc1nc(-c2ccc(NC(=O)[C@H]3CCC(=O)N3Cc3ccccc3)cc2)cs1 [Example 1]	–	–	–	–	–	–	EC50 (HSV-1 strain F or KOS; Human alphaherpesvirus 1, BHK-21, Group 1 Table 6 entries): 3400 nM; EC50 (HCMV (strain AD169) [1]; [4]): 250 nM; EC50 (HCMV (strain AD169) [2]; [4]): 80000 nM
CCCCNC(=O)Nc1ccc(-c2csc(N)n2)cc1 [Example 2]	12000 nM	–	–	–	–	–	EC50 (HSV-1 strain F or KOS; [5]): 3500 nM; EC50 (HCMV (strain AD169) [1]; [6]): 600 nM
Nc1nc(-c2ccc(NC(=O)NCCc3ccccn3)cc2)cs1 [Example 3]	> 93000 nM	5200 nM	93 µM	–	–	–	EC50 (HSV-1 strain F or KOS; [5]): 3600 nM
CN(CCc1ccccn1)C(=O)[C@H](Cc1ccccc1)NC(=O)Nc1ccc(-c2csc(N)n2)cc1 [Example 9]	36000 nM	–	–	–	–	–	EC50 (HSV-1 strain F or KOS; [5]): 2900 nM; EC50 (HCMV (strain AD169) [1]; [6]): 4100 nM
Nc1nc(-c2ccc(NC(=O)CCNC3CCc4ccccc43)cc2)cs1 (stereo not shown) [Example 9]	–	–	–	–	–	–	EC50 (HSV-1 strain F or KOS; [7]): 950 nM; EC50 (HCMV (strain AD169) [1]; [8]): 6000 nM; EC50 (HCMV (strain AD169) [2]; [8]): > 10400 nM
Nc1nc(-c2ccc(NC(=O)NCCCn3ccnc3)cc2)cs1 [Example 10]	> 48000 nM	4700 nM	48 µM	–	–	–	–
Nc1nc(-c2ccc(NC(=O)CCN(C(=O)c3cccnc3)C3CCc4ccccc43)cc2)cs1 (stereo not shown) [Example 11]	–	–	–	–	–	–	EC50 (HSV-1 strain F or KOS; [7]): 4000 nM; EC50 (HCMV (strain AD169) [1]; [8]): 15000 nM; EC50 (HCMV (strain AD169) [2]; [8]): 20000 nM
Nc1nc(-c2ccc(NC(=O)CNCc3ccccn3)cc2)cs1 [Example 12]	–	–	–	8000 nM	1500 nM	–	EC50 (HCMV (strain AD169) [2]; [10]): 84000 nM; MCC at 192 h ([3]; Group 1 Table 1 entries): 84 µM
Nc1nc(-c2ccc(NC(=O)NCCN(Cc3ccccc3)Cc3ccccc3)cc2)cs1 [Example 16]	> 5000 nM	1600 nM	5 µM	–	–	–	–
Nc1nc(-c2ccc(NC(=O)NCc3ccccc3)cc2)cs1 [Example 20]	> 45000 nM	900 nM	45 µM	–	–	–	–
Nc1nc(-c2ccc(NC(=O)NCc3ccc(Cl)cc3)cc2)cs1 [Example 21]	> 1000 nM	7200 nM	1 µM	–	–	–	–
Nc1nc(-c2ccc(NC(=O)NCc3cccc(F)c3)cc2)cs1 [Example 22]	> 8000 nM	1300 nM	8 µM	–	–	–	–
Nc1nc(-c2ccc(NC(=O)NCc3ccccc3F)cc2)cs1 [Example 23]	> 4000 nM	2000 nM	4 µM	–	–	–	–
Nc1nc(-c2ccc(NC(=O)NCCc3ccc(F)cc3)cc2)cs1 [Example 24]	> 5000 nM	30000 nM	5 µM	–	–	–	–
CN(C)c1ccc(CNC(=O)Nc2ccc(-c3csc(N)n3)cc2)cc1 [Example 25]	> 18000 nM	2900 nM	18 µM	–	–	–	–
C[C@H](NC(=O)Nc1ccc(-c2csc(N)n2)cc1)c1ccccc1 [Example 26]	> 74000 nM	590 nM	74 µM	–	–	–	–

SMILES	EC50 (HCMV (strain AD169) [2]; [6])	IC50 (HSV-1 helicase-primase; Group 2 Table 1 entries)	MCC at 192 h ([3]; Group 2 Table 1 entries)	IC50 (HSV-1 helicase-primase; Group 1 Table 1 entries)	EC50 (HSV-1 strain F or KOS; [9])	EC50 (HCMV (strain AD169) [1]; [10])	other results
Nc1nc(-c2ccc(NC(=O)CN(Cc3ccncc3)C(=O)c3ccc(F)cc3)cc2)cs1 [Example 73]	–	–	–	88 nM	17 nM	12600 nM	–
Nc1nc(-c2ccc(NC(=O)CN(CC3CCCCC3)C(=O)CC3CCCCC3)cc2)cs1 [Example 76]	–	–	–	80 nM	160 nM	25000 nM	–
COC(=O)N(CC(=O)Nc1ccc(-c2csc(N)n2)cc1)Cc1ccccc1 [Example 87]	–	–	–	2800 nM	1100 nM	18000 nM	–
C[C@H](c1ccccc1)N(CC(=O)Nc1ccc(-c2csc(N)n2)cc1)C(=O)OC(C)(C)C [Example 88]	–	–	–	2400 nM	1200 nM	> 47000 nM	–
CC(C)(C)OC(=O)N(CC(=O)Nc1ccc(-c2csc(N)n2)cc1)Cc1ccc(Cl)cc1 [Example 91]	–	–	–	70 nM	25 nM	1600 nM	–
CN(C)c1cccc2c(S(=O)(=O)N(CC(=O)Nc3ccc(-c4csc(N)n4)cc3)Cc3ccccc3)cccc12 [Example 98]	–	–	–	500 nM	2100 nM	> 2000 nM	–
CC(C)(C)OC(=O)N(CCc1ccccn1)CC(=O)Nc1ccc(-c2csc(N)n2)cc1 [Example 101]	–	–	–	2200 nM	740 nM	1900 nM	–
Nc1nc(-c2ccc(NC(=O)CN(CCC3CCCCC3)C(=O)C3CCCCC3)cc2)cs1 [Example 103]	–	–	–	150 nM	240 nM	> 41000 nM	–
CN(C)S(=O)(=O)N(CC(=O)Nc1ccc(-c2csc(N)n2)cc1)Cc1ccccc1 [Example 106]	–	–	–	1000 nM	160 nM	> 6000 nM	–
Nc1nc(-c2ccc(NC(=O)CN(CC3CCCCC3)S(=O)(=O)N3CCOCC3)cc2)cs1 [Example 107]	–	–	–	–	830 nM	–	MCC at 192 h ([3]; Group 1 Table 1 entries): 12 µM
Nc1nc(-c2ccc(NC(=O)CN(Cc3ccccc3)C(=O)OCc3ccccc3)cc2)cs1 [Example 109]	–	–	–	310 nM	200 nM	> 20000 nM	–
CC(C)CN(CC(=O)Nc1ccc(-c2csc(N)n2)cc1)C(=O)OCc1ccccc1 [Example 110]	–	–	–	3200 nM	1600 nM	> 40000 nM	–
Nc1nc(-c2ccc(NC(=O)CN(Cc3ccccc3)C(=O)Cc3cccnc3)cc2)cs1 [Example 113]	–	–	–	2000 nM	–	–	EC50 (HCMV (strain AD169) [2]; [10]): > 50000 nM; MCC at 192 h ([3]; Group 1 Table 1 entries): 50 µM
CCCC(CCC)N(CC(=O)Nc1ccc(-c2csc(N)n2)cc1)C(=O)OCc1ccccc1 [Example 141]	–	–	–	4000 nM	3500 nM	> 121000 nM	–
CC(C)(C)CN(CC(=O)Nc1ccc(-c2csc(N)n2)cc1)C(=O)OC(C)(C)C [Example 142]	–	–	–	6300 nM	2400 nM	4000 nM	–
Nc1nc(-c2ccc(NC(=O)CN(Cc3ccccc3)S(=O)(=O)NCc3ccccc3)cc2)cs1 [Example 143]	–	–	–	800 nM	1000 nM	> 64000 nM	–

— patent US6288091A, “Antiherpes virus compounds and methods for their preparation and use” (Boehringer Ingelheim Ltd., priority 1999, dated 2001)
